Test results: patent US12152022B2, “N-[5-(aminosulfonyl)-4-methyl-1,3-thiazol-2-yl]-N-methyl-2-[4-(2-pyridinyl)-phenyl]-acetamide free base hemihydrate, methods of manufacture and uses thereof” (AiCuris Anti-Infective Cures GmbH, priority 2016, dated 2024)

Experiments:
herpes simplex virus = details: compared with N-[5-(amino-sulfonyl)-4-methyl-1,3-thiazol-2-yl]-N-methyl-2-[4-(2-pyridinyl)phenyl]acetamide; cited from earlier work
HSV-2 = details: once daily suppressive therapy; cited from earlier work
[1] = Saturated solubility in individual excipients; format: physicochemical; details: mean, n=3
Text: Comparative Solubility of Free Base and Free Base Hemihydrate in Individual Excipients Saturated solubility (% w/w) of two forms of pritelivir (batches BXR2KVE for the free base and M023862-CA15-033 for pritelivir hemihydrate) in PEG 400 and propylene glycol, mean (range, n=3) are shown in Table 11 below.

[2] = Hygroscopicity / DVS water sorption; format: physicochemical; details: for DVS: release and adsorption of water: 25° C., experiment time <600 min for Form C
Text: FIG. 6A: weight vs. relative humidity, FIG. 6B: measurement over time.
(§1) The hemihydrate Form C was isolated on larger scale. The starting material for the screening (Form B) was a monohydrate. Additionally a potential dihydrate (form L) was identified. […] To extend the exposure to different relative humidity (RH) values small vials with solid/saturated solutions were loaded with an open pan of Form C on top and the sealed vials kept for 5 days (see the data below for different humidity levels).

[3] = Exposure of Form C to different relative humidity values, check by XRPD; format: physicochemical; details: <5% to 100% RH, sealed vials, 5 days
Text: as §1

[4] = pKa value by photometric titration; format: physicochemical
Protocol: (§2) The physical characterization of the free base hemihydrate referred to herein was performed using compendial methods as per European Pharmacopoeia (Ph. Eur.) and/or the U.S.
(§3) The identified forms were then further characterized by several methods: XRPD, Optical microscopy, ^1H-NMR, DSC, TGA, and DVS. The physical characterization of the free base hemihydrate referred to herein was performed using compendial methods as per European Pharmacopoeia (Ph. Eur.) and/or the U.S. Pharmacopeial Convention (USP).
(§4) General properties of N-[5-(aminosulfonyl)-4-methyl-1,3-thiazol-2-yl]-N-methyl-2-[4-(2-pyridinyl)-phenyl]-acetamide hemihydrate Table 9: […]

[5] = Octanol/water partition coefficient; format: physicochemical; details: 25° C.
Protocol: as §2, §3, §4

C[C@H](Cn1cnc2c(N)ncnc21)OCP(=O)(O)O [Tenofovir]
IC50-values compared to pritelivir (herpes simplex virus): significantly higher

CC(C)[C@H](N)C(=O)OCCOCn1cnc2c(=O)[nH]c(N)nc21 [valacyclovir]
Risk of transmission of genital herpes (HSV-2): significantly reduces the risk of transmission

Cc1nc(N(C)C(=O)Cc2ccc(-c3ccccn3)cc2)sc1S(N)(=O)=O [pritelivir free base, N-[5-(aminosulfonyl)-4-methyl-1,3-thiazol-2-yl]-N-methyl-2-[4-(2-pyridinyl)-phenyl]-acetamide]
Saturated solubility in PEG 400 ([1]; PEG 400): 3.30 % w/w | Saturated solubility in PEG 400 (free base*) ([1]; PEG 400, column marked *, asterisk not explained): 7.87 % w/w | Saturated solubility in propylene glycol ([1]; Propylene glycol): 0.20 % w/w | Saturated solubility in propylene glycol (free base*) ([1]; Propylene glycol, column marked *, asterisk not explained): 2.84 % w/w | DVS: release and adsorption of water ([2]; listed as Form B): release and adsorb water more rapidly than Form C

Cc1nc(N(C)C(=O)Cc2ccc(-c3ccccn3)cc2)sc1S(N)(=O)=O [pritelivir hemihydrate, N-[5-(aminosulfonyl)-4-methyl-1,3-thiazol-2-yl]-N-methyl-2-[4-(2-pyridinyl)-phenyl]-acetamide free base hemihydrate]
Solid form by XRPD after humidity exposure [3]: all samples confirmed to be Form C | pKa value (photometric titration) [4]: 4.6 | Saturated solubility in PEG 400 ([1]; PEG 400, hemihydrate): 7.87 % w/w | Saturated solubility in propylene glycol ([1]; Propylene glycol, hemihydrate): 0.59 % w/w | logP [5]: -0.0405 | Hygroscopicity [2]: Not hygroscopic | DVS: release and adsorption of water ([2]; hemihydrate): almost no change
